“Also recorded” adds a separate entry of the source.
B1: IFN-γ: type II interferon, M1-inducing agent (protein, UniProt P01579 24-161, looked up)
Interferon gamma: QDPYVKEAENLKKYFNAGHSDVADNGTLFLGILKNWKEESDRKIMQSQIVSFYFKLFKNFKDDQSIQKSVETIKEDMNVKFFNSNKKKRDDFEKLTNYSVTDLNVQRKAIHELIQVMAELSPAAKTGKRKRSQMLFRG

Key:
[1] = test system: p16(Ink4a) expression in SAMs; experiment: p16(Ink4a) promoter-dependent luciferase activity in alginate bead-elicited macrophages (SAMs) ex vivo; assay type: cell-based, mouse; conditions: for Modulation of p16(Ink4a): SAMs: SAMs from NDF alginate beads, dose-response testing; for effect on luciferase activity (M1-inducing agents): IFN-γ 10 ng/mL, Poly(I:C) 10 μg/mL, IFN-α 100 U/mL, 72 hours
Experimental: (§1) FIG. 7. Immunomodulatory regulation of p16(Ink4a) and SAβG in macrophages. Peritoneal lavage cells elicited by alginate-encapsulated SCs from p16^Ink4a/Luc mice were treated ex vivo with immunomodulatory agents for 72 hours. A) p16 promoter-dependent luciferase activity (black bars) and […] activity (via 4-MUG hydrolysis) (gray bars) were measured following treatment with M1- and M2-polarizing stimuli: LPS at 1 ng/mL, IFN-γ at 10 ng/mL, LPS/IFN-γ co-treatment, Poly(I:C) at 10 μg/mL, IFN-α at 100 U/mL, IL-4 at 20 ng/mL, IL-13 at 10 ng/ml, and IL-4/IL-13 co-treatment. Results are shown as the mean±standard deviation for at least 3 independent experiments, with statistical significance between treated compared to non-treated samples depicted. B) Dose-dependent response of JAK1/2 inhibitor Ruxolitinib on luciferase activity in elicited macrophages in the presence (gray bars) or absence (black bars) of IL-4 (10 ng/mL) stimulation. Enzyme activities are expressed as the percent activity relative to non-treated (NT) controls per cell. Statistical significance between IL-4 stimulated and non-stimulated cells at each concentration of ruxolitinib is shown.
FIG. 8. Immunomodulatory regulation of p16(Ink4a) and SAβG in macrophages. Peritoneal lavage cells elicited by alginate-encapsulated SCs from p16^Ink4a/Luc mice were treated ex vivo with immunomodulatory agents for up to 72 hours. (A) mRNA expression of p16(Ink4a) and β-galactosidase (Glb1) in macrophages (relative to B2m expression) with or without LPS stimulation for 72 hours analyzed via qRT-PCR, normalized to non-treated controls. (B) Microphotograph of SAβG-stained adherence-selected macrophages with or without stimulation with LPS (1 ng/mL) for 72 hours (10× objective). (C&D) Kinetics of p16(Ink4a) promoter-dependent luciferase activity per cell with or without LPS stimulation (C) or IL-4 stimulation (D), normalized to activity from non-treated cells at time zero. Results are shown as the mean±standard deviation for at least 3 experiments. Statistical significance with respect to non-treated control at time zero is indicated. (E) Luciferase activity and (3-galactosidase activity (via 4-MUG hydrolysis) from proteose peptone-elicited lavage cells following stimulation with IL-4 (20 ng/mL) for 72 hours, normalized to non-treated controls. (F) Viability following 72 hour dose-response to JAK1/2 inhibitor Ruxolitinib in the presence or absence of IL-4 (10 ng/mL) stimulation, measured by CyQuant Direct DNA-based viability assay. Viability normalized to respective controls lacking Ruxolitinib. (G&H) Dose-response of STAT6 inhibitor AS1517499 against luciferase activity (G) and viability via CyQuant Direct assay (H) following 72 hour treatment in the presence and absence of IL-4 (10 ng/mL). Results normalized to respective controls (with or without IL-4) lacking STAT6 inhibitor. Statistical significance is calculated with respect to the difference between IL-4 stimulated and non-stimulated cells at each concentration of STAT6 inhibitor. (I) Relative luciferase activity per cell following repolarization with M1- and M2-inducing agents. Macrophages were left non-treated (NT) or treated with either LPS (1 ng/ml) or IL-4 (20 ng/ml) for 72 hours (days 1-3), as indicated. For each treatment set, samples were collected at 72 hours (no further treatment; days 4-6=x). Alternatively, cells were washed and placed in fresh medium (−), medium containing LPS (1 ng/mL) and IFN-γ (10 ng/mL), or medium containing IL-4 (20 ng/mL) and IL-13 (10 ng/mL) and incubated for an additional 72 hours prior to sample collection (as indicated for days 4-6). Luciferase activity is expressed as the percent activity per cell relative to non-treated (NT) controls after the first 72 hours.
Luciferase activity of cell lysates was accessed using Bright-Glo™ Luciferase Assay System (Promega; Madison, Wis.) according to manufacturer's instructions with minor modifications. […]

β-galactosidase in SAMs = experiment: β-galactosidase activity (4-MUG hydrolysis) in alginate bead-elicited macrophages (SAMs) ex vivo; assay type: cell-based, mouse; conditions: for β-galactosidase production by SAM cells (MUG assay): concentrations of 2.5 to 10 μM; for effect on β-gal activity (polarizing agents): 72 hours, IFN-γ 10 ng/mL, Poly(I:C) 10 μg/mL, IFN-α 100 U/mL, IL-4 20 ng/mL, IL-13 10 ng/ml
Experimental: as §1
FIG. 13. Effect of TA-4812 on β-gal expression and cell viability. Asenins TA-04812-1, was assayed for its effects on SAM viability, proliferation, and β-gal expression. SAM viability was determined using the resazurin cell viability assay (Res). Cell proliferation was assessed using the CyQuant assay (CyQUANT® Direct Cell proliferation Assay, ThermoFisher Scientific, Waltham, Mass., Catalog # C35011, performed according to manufacturer's instructions) (CyQ). β-gal production was assessed using the MUG assay, a quantitative assay to determine the level of β-gal expression using 4-methylumbelliferylgalactopyranoside (MUG) as substrate.
A fluorogenic substrate for β-galactosidase, 4-MUG (4-Methylumbelliferyl β-D-Galactopyranoside; Sigma-Aldrich), was used for the quantitation of enzymatic β-gal activity from cell lysates, assayed under β-gal^pH6 conditions (i.e. pH 6.0). In a 96-well white microplate, 5 μl of diluted cell lysate was combined with 45 μl of fluorogenic β-gal^pH6 reaction buffer: 1 mM 4-MUG in 100 mM citric acid/sodium phosphate buffer, pH 6.0, containing 2 mM MgCl2, 150 mM NaCl and 0.02% NP-40. Kinetics of product formation at room temperature was determined by measuring fluorescence (Ex/Em 360 nm/440 nm) of the reaction mixture at regular intervals over a 2-hour time period. Reaction endpoints were determined by addition of 150 μl of 700 mM sodium carbonate. The rate of reaction (RFU/min) for each sample was determined, and normalized per μg of protein.
To determine whether macrophage polarization regulates p16(Ink4a) and SAβG expression, peritoneal lavage from p16^Ink4a/Luc mice elicited by our alginate bead model were stimulated with M1- and M2-inducing agents and subsequently, luciferase activity (driven by endogenous p16(Ink4a) promoter) and β-galactosidase activity (assayed via 4-MUG hydrolysis) were measured (FIG. 7A). […] Consistently, LPS decreased the intensity of SAβG staining in treated macrophages. The response of macrophages to LPS was rapid, with a significant decrease in luciferase activity observed within 8 hours (˜40% decrease).
We investigated whether the mechanisms regulating the expression of these traits in macrophages were similar to those found in SCs. Using cells isolated from p16^Ink4a/Luc mice, the dose-dependent response of luciferase and β-galactosidase activities to immunomodulatory stimuli in macrophages was compared to that of proliferating and irradiation-induced senescent adipose-derived mesenchymal stromal cells. […] LPS stimulation of alginate bead model-elicited macrophages reduced luciferase activity, with maximal inhibition (˜85%) observed at concentrations ≥1 ng/mL (FIG. 10A). In addition, β-galactosidase activity was reduced by 40% at 10 ng/mL (FIG. 10B). […]

Molecule | Modulation of p16(Ink4a): SAMs [1] | effect on luciferase activity (M1-inducing agents) [1] | effect on β-gal activity (polarizing agents) (β-galactosidase in SAMs) | other results
COc1ccc(C2CC(=NO)c3c(SCc4ccccc4)sc(C(=O)NCc4cccc(F)c4)c3C2)cc1 (stereo not shown) [Example A1.6, 3-(Benzylthio)-N-(3-fluorobenzyl)-4-(hydroxyimino)-6-(4-methoxyphenyl)-4,5,6,7-tetrahydrobenzo[c]thiophene-1-carboxamide] | decrease |  |  | β-galactosidase production by SAM cells (MUG assay) (β-galactosidase in SAMs; listed as TA-4812): reduce β-galactosidase production; β-galactosidase production by SAM cells (MUG assay) (β-galactosidase in SAMs; listed as TA-04812-1): reducing β-gal expression
O=C(NCCCc1cn[nH]c1)c1ccc(-c2ccncc2)c(C#Cc2ccc(F)cc2)c1 [OT-82] | decrease |  |  | expression of p16 (luciferase) in SAMs ([1]; OT-82, 500 nM): selectively decrease; also recorded: significantly downregulates; β-galactosidase expression/activity in SAMs (β-galactosidase in SAMs; OT-82, 500 nM): no effect; also recorded: little effect
IFN-α |  | decreased luciferase activity | without affecting β-gal activity | 
IL-4: M2-polarizing cytokine | increase |  | without modulating β-gal activity | 
IL-13: M2-polarizing cytokine | increase |  | without modulating β-gal activity | 
Poly(I:C) | decrease | decreased luciferase activity | without affecting β-gal activity | luciferase activity, dose-response ([1]; 72 hr, selective to macrophages): dose-dependent decrease; β-galactosidase activity, dose-response (β-galactosidase in SAMs; Poly(I:C), 72 hr): no effect
B1 |  | decreased luciferase activity | without affecting β-gal activity | 
